Experiments:
Type in all cases: in vivo
[1] = system: Beet Armyworm (Spodoptera exigua, LAPHEG); assay: Bioassays on Beet Armyworm (BAW), 128-well diet tray assay; conditions: Spodoptera exigua; for mortality at 50 µg/cm2: 168 h, second instar larvae, 50 μg/cm^2 of test molecule on artificial diet, 25° C., five to seven days, average of eight wells, read-out: BAW % Control (or Mortality) rating; for pest or weed control at 50 µg/cm2: Beet Armyworm, Table ABC / ABC-DP rating, read-out: BAW rating
Procedure, shortened: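 Test molecule was dissolved in 90:10 acetone-water and applied at 50 μg/cm^2 onto artificial diet in eight wells, then dried. Second instar larvae, one to five per well, were added, and trays were kept vented at 25° C. with a 14:10 photoperiod for five to seven days before mortality was recorded.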

[2] = system: Cabbage Looper (Trichoplusia ni, TRIPNI); assay: Bioassays on Cabbage Looper (CL), 128-well diet tray assay; conditions: Trichoplusia ni; for mortality at 50 µg/cm2: 168 h, second instar larvae, 50 μg/cm^2 of test molecule on artificial diet, 25° C., five to seven days, average of eight wells, read-out: CL % Control (or Mortality) rating; for pest or weed control at 50 µg/cm2: Cabbage Looper, Table ABC / ABC-DP rating, read-out: CL rating
Procedure, shortened: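 Percent mortality, averaged across eight replicate wells, after second-instar larvae (1–5 per well) fed for five to seven days on diet dosed at 50 μg/cm^2. Compound was applied in acetone-water 90:10 and dried; trays kept vented at 25° C under 14:10 photoperiod.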

[3] = system: Yellow Fever Mosquito (Aedes aegypti, AEDSAE); conditions: for YFM rating: Yellow Fever Mosquito, Table ABC / ABC-DP rating; for YFM % Control (or Mortality) rating: about 1 day-old larvae, 4000 ppm master solution diluted with 90:10 water/acetone, 15 μL per well plus 220 μL larval mixture, 3 days
Procedure, shortened: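 Larvae ~1 day old, in liver powder/water; compound from 4000 ppm DMSO stock diluted with water/acetone (90:10); 6 reps; lidded, RT, 3 d; mortality scored per well, rated.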

| Structure (SMILES) | mortality at 50 µg/cm2 [1] [%] | pest or weed control at 50 µg/cm2 [1] [%] | mortality at 50 µg/cm2 [2] [%] | pest or weed control at 50 µg/cm2 [2] [%] | YFM rating [3] | YFM % Control (or Mortality) rating [3] |
| --- | --- | --- | --- | --- | --- | --- |
| O=C(NNc1ccc(OC(F)(F)F)cc1)c1cc(NC(=O)[C@H]2[C@H](c3cc(Cl)cc(Cl)c3)C2(Cl)Cl)ccc1Cl (relative stereo) [F2564, trans-2,2-Dichloro-N-(4-chloro-3-(2-(4-(trifluoromethoxy)phenyl)hydrazine-1-carbonyl)phenyl)-3-(3,5-dichlorophenyl)cyclopropane-1-carboxamide] | 50 to 100 | 50 to 100 | 50 to 100 | 50 to 100 | A (80–100) | A (80–100) |
| O=C(NNc1ccc(OC(F)(F)C(F)(F)F)cc1)c1cc(NC(=O)[C@H]2[C@H](c3cc(Cl)cc(Cl)c3)C2(Cl)Cl)ccc1Cl (relative stereo) [F2565, trans-2,2-Dichloro-N-(4-chloro-3-(2-(4-(perfluoroethoxy)phenyl)hydrazine-1-carbonyl)phenyl)-3-(3,5-dichlorophenyl)cyclopropane-1-carboxamide] | 50 to 100 | 50 to 100 | 50 to 100 | 50 to 100 | – | D (No activity noticed in this bioassay) |
| Cl.NNC(=O)c1cc(NC(=O)[C@H]2[C@H](c3cc(Cl)cc(Cl)c3)C2(Cl)Cl)ccc1Cl (relative stereo) [F2567, trans-2,2-dichloro-N-(4-chloro-3-(hydrazinecarbonyl)phenyl)-3-(3,5-dichlorophenyl)cyclopropane-1-carboxamide hydrochloride] | 50 to 100 | 50 to 100 | 50 to 100 | 50 to 100 | A (80–100) | A (80–100) |
| O=C(NNc1cccc(C(F)(F)F)c1)c1cc(NC(=O)[C@H]2[C@H](c3cc(Cl)cc(Cl)c3)C2(Cl)Cl)ccc1Cl (relative stereo) [F2572, trans-2,2-Dichloro-N-(4-chloro-3-(2-(3-(trifluoromethyl)phenyl)hydrazine-1-carbonyl)phenyl)-3-(3,5-dichlorophenyl)cyclopropane-1-carboxamide] | 50 to 100 | 50 to 100 | 50 to 100 | 50 to 100 | A (80–100) | A (80–100) |
| N#Cc1ccccc1NNC(=O)c1cc(NC(=O)[C@H]2[C@H](c3cc(Cl)cc(Cl)c3)C2(Cl)Cl)ccc1Cl (relative stereo) [F2576, trans-2,2-Dichloro-N-(4-chloro-3-(2-(2-cyanophenyl)hydrazine-1-carbonyl)phenyl)-3-(3,5-dichlorophenyl)cyclopropane-1-carboxamide] | 50 to 100 | 50 to 100 | 50 to 100 | 50 to 100 | A (80–100) | A (80–100) |
| O=C(NN=Cc1ccccn1)c1cc(NC(=O)[C@H]2[C@H](c3cc(Cl)cc(Cl)c3)C2(Cl)Cl)ccc1Cl (relative stereo) [F3002, trans-2,2-Dichloro-N-(4-chloro-3-(2-(pyridin-2-ylmethylene)hydrazine-1-carbonyl)phenyl)-3-(3,5-dichlorophenyl)cyclopropane-1-carboxamide] | 50 to 100 | 50 to 100 | 50 to 100 | 50 to 100 | A (80–100) | A (80–100) |
| O=C(NN=Cc1cc(F)ccc1F)c1cc(NC(=O)[C@H]2[C@H](c3cc(Cl)cc(Cl)c3)C2(Cl)Cl)ccc1Cl (relative stereo) [F3003, trans-2,2-Dichloro-N-(4-chloro-3-(2-(2,5-difluorobenzylidene)hydrazine-1-carbonyl)phenyl)-3-(3,5-dichlorophenyl)cyclopropane-1-carboxamide] | 50 to 100 | 50 to 100 | 50 to 100 | 50 to 100 | A (80–100) | A (80–100) |
| O=C(NN=Cc1ccc(F)cc1F)c1cc(NC(=O)[C@H]2[C@H](c3cc(Cl)cc(Cl)c3)C2(Cl)Cl)ccc1Cl (relative stereo) [F3004, trans-2,2-Dichloro-N-(4-chloro-3-(2-(2,4-difluorobenzylidene)hydrazine-1-carbonyl)phenyl)-3-(3,5-dichlorophenyl)cyclopropane-1-carboxamide] | 50 to 100 | 50 to 100 | 50 to 100 | 50 to 100 | A (80–100) | A (80–100) |
| CC(=NNC(=O)c1cc(NC(=O)[C@H]2[C@H](c3cc(Cl)cc(Cl)c3)C2(Cl)Cl)ccc1Cl)c1ccccc1 (relative stereo) [F3005, trans-2,2-Dichloro-N-(4-chloro-3-(2-(1-phenylethylidene)hydrazine-1-carbonyl)phenyl)-3-(3,5-dichlorophenyl)cyclopropane-1-carboxamide] | 50 to 100 | 50 to 100 | 50 to 100 | 50 to 100 | A (80–100) | A (80–100) |
| O=C(NN=CCC(F)(F)F)c1cc(NC(=O)[C@H]2[C@H](c3cc(Cl)cc(Cl)c3)C2(Cl)Cl)ccc1Cl (relative stereo) [F3008, trans-2,2-Dichloro-N-(4-chloro-3-(2-(3,3,3-trifluoropropylidene)hydrazine-1-carbonyl)phenyl)-3-(3,5-dichlorophenyl)cyclopropane-1-carboxamide] | 50 to 100 | 50 to 100 | 50 to 100 | 50 to 100 | A (80–100) | A (80–100) |
| CN(N=CCC(F)(F)F)C(=O)c1cc(NC(=O)[C@H]2[C@H](c3cc(Cl)cc(Cl)c3)C2(Cl)Cl)ccc1Cl (relative stereo) [F3009, trans-2,2-dichloro-N-(4-chloro-3-(1-methyl-2-(3,3,3-trifluoropropylidene)hydrazine-1-carbonyl)phenyl)-3-(3,5-dichlorophenyl)cyclopropane-1-carboxamide] | 50 to 100 | 50 to 100 | 50 to 100 | 50 to 100 | A (80–100) | A (80–100) |
| CC(C)=NNC(=O)c1cc(NC(=O)[C@H]2[C@H](c3cc(Cl)cc(Cl)c3)C2(Cl)Cl)ccc1Cl (relative stereo) [F3010, trans-2,2-Dichloro-N-(4-chloro-3-(2-(propan-2-ylidene)hydrazine-1-carbonyl)phenyl)-3-(3,5-dichlorophenyl)cyclopropane-1-carboxamide] | 50 to 100 | 50 to 100 | 50 to 100 | 50 to 100 | A (80–100) | A (80–100) |
| Nc1c(F)ccc(NC(=O)c2cc(NC(=O)[C@H]3[C@H](c4ccc(Cl)c(Cl)c4)C3(Cl)Cl)ccc2Cl)c1F [DP2, N-(3-Amino-2,4-difluorophenyl)-2-chloro-5-((1R,3R)-2,2-dichloro-3-(3,4-dichlorophenyl)cyclopropane-1-carboxamido)benzamide] | 50 to 100 | 50 to 100 | 50 to 100 | 50 to 100 | A (80–100) | A (80–100) |
| Nc1cc(NC(=O)c2cc(NC(=O)[C@H]3[C@H](c4ccc(Cl)c(Cl)c4)C3(Cl)Cl)ccc2Cl)c(F)cc1F [DP5, N-(5-Amino-2,4-difluorophenyl)-2-chloro-5-((1R,3R)-2,2-dichloro-3-(3,4-dichlorophenyl)cyclopropane-1-carboxamido)benzamide] | 50 to 100 | 50 to 100 | 50 to 100 | 50 to 100 | A (80–100) | A (80–100) |
| CC(C)(C)OC(=O)N(C(=O)OC(C)(C)C)c1c(F)ccc(NC(=O)c2cc(NC(=O)[C@H]3[C@H](c4ccc(Cl)c(Cl)c4)C3(Cl)Cl)ccc2Cl)c1F [DP7, tert-Butyl-N-((tert-butoxy)carbonyl)-N-(3-(2-chloro-5-((1R,3R)-2,2-dichloro-3-(3,4-dichlorophenyl)cyclopropane-1-carboxamido)benzamido)-2,6-difluorophenyl)carbamate] | 50 to 100 | 50 to 100 | 0 to 50 | 0 to 50 | – | D (No activity noticed in this bioassay) |

— patent US20250228239A1, “MOLECULES HAVING PESTICIDAL UTILITY, AND INTERMEDIATES, COMPOSITIONS, AND PROCESSES, RELATED THERETO” (priority 2024, published 2025)
